This assay deals with Mycobacterium tuberculosis replicating, CFU imaging. The experiment in a line: IC90 against replicating M. tuberculosis, dose response, CFU by imaging, dry powder, 7108-03 (AID 743165).

Some results are limits rather than exact numbers.

Consider `CCOC(=O)NC(=O)c1ccsc1NC(=O)c1nc2ccccc2s1`, for which the 90% effect concentration (IC90) is < 8 µM.

For `Cn1c(NC(=O)c2ccccc2)nc2ccccc21`, the IC90 is < 48 µM.

By IC90 is commonly meant the point of the concentration-response curve where the effect stands at 90%.

(Values after PubChem BioAssay AID743165 (Broad Institute, 2013).)
